Laboratory results: patent US10273242B2, “Compound inhibiting activities of BTK and/or JAK3 kinases” (BEIJING HANMI PHARMACEUTICAL CO., LTD., priority 2013, dated 2019)

Tests used:
JAK3 kinase = target: T1, JAK3 kinase (Homo sapiens, UniProt P52333); assay: JAK3 kinase activity inhibition assay (ADP-Glo); type: biochemical; conditions: ATP 10 μM
T1 construct: purchased SignalChem J03-11G
Procedure: The JAK3 kinase (purchased from SignalChem, No.: J03-11G) was diluted with reaction buffer (40 mM Tris-HCl, pH 7.5; 20 mM MgCl2, 0.1 mg/ml BSA; 1 mM DTT) to 2 times of the final concentration (which is 0.5 ng/μL) and added with 5 μL/well to a 96-well plate. The compounds of the present invention were serial diluted with deionized water to four times (i.e., 40 μM, 4 μM, 0.4 μM, 80 nM, 16 nM, 3.2 nM, respectively) of the final concentrations (10 μM, 1 μM, 0.1 μM, 20 nM, 4 nM, 0.8 nM, respectively), and added with 2.5 μL/well to the test wells of the 96-well plate. After incubation at 25° C. for 10 minutes, 10 μM of ATP (purchased from Promega, No.: V9102) and 0.2 μg/μL of Poly E4Y1 (purchased from Sigma, No.: P0275-25MG) were added at 2.5 μL/well and reacted at 25° C. for 60 minutes. After the reaction was completed, 10 μL of the ADP-Glo reagent (ADP-Glo™ kinase assay kit, purchased from Promega, No.: V9102) was added to each well and reacted at 25° C. for 40 minutes. Then 20 μL of the ADP-Glo kinase detection reagent was added to each well and reacted at 25° C. for 30 minutes. The kinase activity was detected by luminescence using the ADP-Glo kinase assay kit according to the manufacture's instruction, and IC50 values of the compounds of the present invention were calculated.

[1] = system: p-BTK (pY223) in Ramos cells; assay: p-BTK inhibition assay in Ramos cells (Western blot); type: cell-based; conditions: compound 1 hour, anti-human IgM stimulation
Procedure: (§1) Ramos cells (purchased from the Beijing Union Medical College) with starvation culture for 1 hour were treated with the compounds of the present invention for 1 hour, and then rinsed with PBS buffer (pH 7.2) to remove the compounds. Then they were resuspended in 100 μL of serum-free culture medium containing 1 μM of anti-human IgM F(ab′)2 (purchased from SBA company, No.: 2022-01) and stimulated on ice for 10 minutes. The cells were rinsed with PBS buffer (pH 7.2) to remove IgM and resuspended in 100 μL of protein lysis buffer (purchased from Sigma, No.: C2978), and then prepared and quantified the protein sample. 100 μg of the protein sample were taken and loaded on polyacrylamide gels for electrophoresis under 200V of voltage. After electrophoresis, protein blots were transferred to a PVDF membrane. […] The protein expression was detected by coloration using ECL substrate (purchased from GE, No.: RPN2109).

[2] = system: p-PLCγ2 (pY1217) in Ramos cells; assay: p-PLCγ2 inhibition assay in Ramos cells (Western blot); type: cell-based; conditions: compound 1 hour, anti-human IgM stimulation
Procedure: as §1

Lewis rats = assay: Adjuvant-induced arthritis (AIA) model in rats; type: in vivo; conditions: 30 mg/kg and 100 mg/kg orally once a day for 7 days
Procedure: 100 mg of inactivated Mycobacterium tuberculosis (purchased from BD Difco, No.: 231141) accurately weighed and dissolved in 5 mL of incomplete Freund's adjuvant (IFA) (purchased from Sigma, No.: F5506), and then with 5 mL of physiological saline added, was homogeneously emulsified into 10 mg/mL of complete Freund's adjuvant (CFA). […] Rats were evaluated for the severity of arthritis using an established scoring system ranging from 0 to 4 as follows: 0=no evidence of erythema or swelling; 1=slight erythema or swelling of one of the toe joints; 2=erythema or swelling of more than one toe; 3=swelling of the ankle or wrist joint; 4=swelling of all toes including the ankle joint. All four paws of the rat were scored individually, and the highest score was 16.
The paw volumes of the rats were measured by the drainage method using a plethysmometer (Plethysmometer PV-200, Chengdu Taimeng Science and Technology Co., Ltd.) to determine the volumes below the ankle joints (in mL). The rats were measured for paw volumes every other day from day 10 after primary immunization, i.e. day 1 of the administration. […]

T1 sequence (P52333 781-1124 limits assumed): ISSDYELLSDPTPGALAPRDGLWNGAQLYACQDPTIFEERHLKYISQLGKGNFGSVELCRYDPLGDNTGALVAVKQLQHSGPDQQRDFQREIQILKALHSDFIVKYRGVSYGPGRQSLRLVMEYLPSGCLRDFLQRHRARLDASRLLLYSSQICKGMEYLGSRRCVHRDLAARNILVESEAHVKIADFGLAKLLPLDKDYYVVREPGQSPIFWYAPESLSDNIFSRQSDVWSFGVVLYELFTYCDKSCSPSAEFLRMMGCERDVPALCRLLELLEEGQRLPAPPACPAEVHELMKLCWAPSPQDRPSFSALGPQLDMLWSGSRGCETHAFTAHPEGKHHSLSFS

C=CC(=O)N1CC[C@@H](Nc2nc(Nc3cc(C)ns3)nc3ccsc23)C1 [Example 132, (R)-1-(3-((2-((3-methyl-isothiazol-5-yl)amino)thieno[3,2-d]pyrimidin-4-yl)amino)pyrrolidin-1-yl)prop-2-en-1-one]
IC50 (JAK3 kinase): ≤ 0.01 µM | inhibition of expression of p-BTK [1]: significantly inhibit the expressions of p-BTK and p-PLCγ2 in Ramos cells in a dose-dependent manner | inhibition of expression of p-PLCγ2 [2]: significantly inhibit the expressions of p-BTK and p-PLCγ2 in Ramos cells in a dose-dependent manner | therapeutic effect on arthritis (arthritis severity scores) (Lewis rats): good therapeutic effect on arthritis in the AIA model at the designed doses
